From patent US6056965A, “2-mercapto-imidazole derivatives substituted in position 4 (or 5) as antioxidizing agents, method of preparation and applications in the pharmaceutical, cosmetic or food industries” (Oxis Isle of Man, Limited, priority 1993, dated 2000)

What was measured:
[1] = test system: erythrocytic glutathione peroxidase; experiment: Prevention of the inactivation of glutathione peroxidase by hypochlorous acid; assay type: biochemical, bovine; settings: 25 μM test molecule + 10 μM hypochlorous acid, 2 minutes at 37° C.; 100% = no hypochlorous acid and no test molecule
Experimental: In a 50 mM potassium phosphate buffer of pH 7.0 containing 0.1 mM DTPA, a quantity of erythrocytic glutathione peroxidase of bovine origin is incubated for 2 minutes at 37° C., at a final concentration of 1.5 U/ml, in the presence of 10 μM hypochlorous acid and in the presence or absence of a molecule described in the present invention (at 25 μM).
After incubation for 2 minutes, 100 μl of this reaction medium are then added to 1.5 ml of 50 mM Tris buffer of pH 7.6 (at 37° C.) containing 0.1 mM DTPA, 0.165 mM β-NADPH, 2.2 mM reduced glutathione and 1.1 U/ml of glutathione disulfide reductase.
Then, after the addition of 50 μl of 6.6 mM t-butyl hydroperoxide, the glutathione peroxidase activity is determined at 37° C. by measuring the decrease in absorbance at 340 nm for 2 minutes.
They are expressed as a percentage of the glutathione peroxidase activity determined under the same experimental conditions in the absence of hypochlorous acid and the test molecule.

[2] = test system: glucose-6-phosphate dehydrogenase; experiment: Prevention of the inactivation of glucose-6-phosphate dehydrogenase by the system Cu(II)/ascorbate/O2; assay type: biochemical, Leuconostoc mesenteroides; settings: 25 μM test molecule + 4.5 μM Cu(2+) + 360 μM ascorbate, 5 minutes at 37° C.; 100% = no system and no test molecule
Experimental: In a 50 mM potassium phosphate buffer of pH 7.0, a quantity of glucose-6-phosphate dehydrogenase (purified from Leuconostoc mesenteroides) is incubated for 5 minutes at 37° C., at a final concentration of 1.2 U/ml, in the presence of 4.5 μM copper sulfate and 360 μM ascorbate and in the presence or absence of a molecule described in the present invention (at 25 μM). After incubation for 5 minutes, 20 μl of this reaction medium are then added to 980 μl of 50 mM Tris buffer of pH 7.5 (at 37° C.) containing 0.380 mM β-NADP^+, 3.3 mM glucose-6-phosphate and 6.3 mM magnesium chloride. The glucose-6-phosphate dehydrogenase activity is then determined at 37° C. by measuring, the increase in absorbance at 340 nm for 7 minutes. They are expressed as a percentage of the glucose-6-phosphate dehydrogenase activity determined under the same experimental conditions in the absence of the system Cu(II)/ascorbate/O2 and the test molecule.

double-stranded DNA = experiment: Prevention of the degradation of DNA by the system Fe(II)-citrate/H2O2/ascorbate; assay type: biochemical, phage lambda; settings: 25 μM test molecule (table) + 20 μM Fe(2+)-citrate, 200 μM ascorbate, 200 μM H2O2, 1 hour at 37° C.
Experimental: After this incubation for one hour, 220 U/ml of catalase are then added to the reaction medium and the integrity of the DNA is measured by spectrofluorimetry after the addition of 10 μl of a 5 mM solution of ethidium bromide to the reaction medium (excitation wavelength: 510 nm; emission wavelength: 590 nm).
The effect of the test molecule is measured by determining the percentage of intact DNA, the value of 100% being determined under the same experimental conditions in the absence of the system Fe(II)-citrate/H2 O2 /ascorbate and the test molecule.

[3] = test system: isolated and perfused rat heart; experiment: Inhibition of cardiac necrosis induced by ischemia-reperfusion, perfused isolated heart (Example 16); settings: 2 μM in perfusion medium 12 minutes prior to ischemia and during reperfusion
Experimental: Male Sprague-Dawley rats weighing between 250 and 350 grams are injected intraperitoneally with a solution of sodium heparinate (40 units/100 g). The rats are anesthetized with ether 30 minutes later. The heart is then quickly removed and perfused by Langendorff's method (see 0. LANGENDORFF: Pflugers Arch. Physiol. Mensch. Tiere; (1895); 61; page 291) with electrical stimulation at a frequency of 300/min. The perfusion solution, equilibrated with 95% of oxygen and 5% of carbon dioxide, consists of a modified Krebs-Henseleit buffer (pH 7.4) of the following composition: NaCl118 mM, KCl 4.7 mM, MgSO4 1.2 mM, CaCl2 1 mM, KH2 PO4 1.2 mM, NaHCO3 25 mM and glucose 11 mM. The whole set-up is thermostatically controlled at 37° C.
The functional state of the heart is monitored by measurement of the following hemodynamic parameters: heart rate, systolic and telediastolic ventricular pressures (the difference between these expressing the developed pressure) and minimal and maximal slopes of the pressure variations as a function of time. […]
In addition, the alteration of the myocardial tissue is evaluated by determining the concentration, in the perfusate, of two cytosolic enzymes released into the perfusion medium, namely creatine phosphokinase (CPK) and lactate dehydrogenase (LDH). […]

isolated rat heart [4] = experiment: Recovery of the developed pressure of a heart subjected to ischemia-reperfusion (Example 18); settings: 10 μM BXT 52051 or 2 μM BXT 52052; 12 minutes prior to ischemia and during reperfusion; FIG. 4
Experimental: In the same experimental model as that described in Example 17, the study of BXT 52051 and BXT 52052 is carried out by perfusing the heart with the perfusion medium containing 10 μM BXT 52051 or 2 μM BXT 52052 for 12 minutes prior to the period of ischemia, as well as during the reperfusion. The degradation of the cardiac function is evaluated from the measurement of hemodynamic parameters (systolic and telediastolic ventricular pressures) by determining over time the percentage recovery of the developed pressure (difference between systolic and telediastolic pressure) during the reperfusion, compared to that recorded just before the period of ischemia (stabilized developed pressure).

[5] = test system: isolated and perfused rat heart; experiment: Inhibition of cardiac necrosis induced by ischemia-reperfusion, modified perfusion solution (Example 17); settings: 20 μM BXT 52053, 600 μM albumin (BSA) or 100 μM L-ergothioneine; 12 minutes before ischemia and first 30 minutes of reperfusion; FIG. 3
Experimental: In the same experimental model as that described in Example 16, the composition of the perfusion solution was modified such that it contains 2.5 mM CaCl2 and 2.4 mM MgCl2) (all else being moreover equal). The effect of BXT 52053 is then compared to that of albumin and L-ergothioneine.
This study is carried out by perfusing the heart with the perfusion solution containing 20 μM BXT 52053, or 600 μM albumin (BSA), or 100 μM L-ergothioneine, during the 12 minutes preceding the period of ischemia, then during the first 30 minutes of post-ischemic reperfusion.
The degradation of the myocardial tissue due to the ischemia and/or reperfusion is evaluated by determining the total quantity of creatine phosphokinase (CPK) released into the perfusate during the period of reperfusion. The results are expressed in milliunits of enzyme activity per milligram of heart and per minute.

isolated rat heart [6] = settings: 100 μmolar; after 15 min of ischemia; cited from earlier work
oxyhemoglobin = settings: micromolar concentrations; sodium nitrite; in vitro; cited from earlier work
[7] = test system: ferryl forms of the hemoproteins; settings: physiological pH; produced in the presence of H2O2; cited from earlier work
[8] = physiological conditions (concentrations and pH); cited from earlier work
[9] = physiological conditions (concentrations and pH); cited from earlier work; remark: listed apart in the source
[10] = pulsed radiolysis or Fenton reaction; cited from earlier work
[11] = quenching excited states of photosensitizers such as rose bengal; cited from earlier work
[12] = in the presence of metal salts (Fe^++); cited from earlier work

Compound	% glutathione peroxidase activity [1] [%]	% glucose-6-phosphate dehydrogenase activity [2] [%]	% intact DNA (double-stranded DNA) [%]	further results
O=C(O)CCc1c[nH]c(=S)[nH]1 [BXT 52020, 3-(2'-mercaptoimidazol-4'-yl)propanoic acid]	94.8	92.3	76.2	
CCOC(=O)CCc1c[nH]c(=S)[nH]1 [BXT 52021, ethyl 3-(2'-mercaptoimidazol-4'-yl)propanoate]	94.7	93.7	78.0	systolic pressure of heart subjected to ischemia-reperfusion [3]: maintained
C[N+](C)(C)CC(CC(=O)[O-])OC(=O)CCc1c[nH]c(S)n1 (stereo not drawn) [BXT 52052, carnitine 3-(2'-mercaptoimidazol-4'-yl)propanoate]				recovery of the ventricular developed pressure during reperfusion (isolated rat heart [4]): recovered much more rapidly and reaches a higher value
C[N+](C)(C)[C@@H](Cc1c[nH]c(=S)[nH]1)C(=O)[O-] [L-ergothioneine, L-(+)-Ergothioneine]				total quantity of CPK released into the perfusate during 30 minutes of reperfusion [5]: no significant effect; extent of cell necrosis (lactate dehydrogenase activity of the effluent) (isolated rat heart [6]): limits the extent of cell necrosis; inhibition of methemoglobin formation (oxyhemoglobin): effectively inhibit the formation of methemoglobin; reduction of ferryl forms of hemoproteins [7]: reduces the ferryl forms of the hemoproteins; reaction with hydrogen peroxide [8]: reacts neither; reaction with superoxide anion [9]: reacts neither; reaction with OH radicals [10]: kinetics close to the maximum rate of diffusion; photoproduction of singlet oxygen [11]: inhibits the photoproduction of singlet oxygen; stimulation of peroxidation of polyunsaturated fatty acids [12]: does not stimulate the peroxidation of polyunsaturated fatty acids
albumin: albumin (BSA), comparison agent in the perfusion solution				total quantity of CPK released into the perfusate during 30 minutes of reperfusion [5]: no significant effect

More lines, main results first:

% glutathione peroxidase activity [1] [%]	% glucose-6-phosphate dehydrogenase activity [2] [%]	Compound	% intact DNA (double-stranded DNA) [%]	further results
94.4	94.4	NCCc1c[nH]c(=S)[nH]1 [BXT 52022, 2-(2'-mercaptoimidazol-4'-yl)ethylamine]	80.2	
93.2	92.3	NC(=O)CCc1c[nH]c(=S)[nH]1 [BXT 52029, 3-(2'-mercaptoimidazol-4'-yl)propanamide]	78.0	
99.1	104.6	CN(C)[C@@H](Cc1c[nH]c(=S)[nH]1)C(=O)O [BXT 52040, 2'-mercapto-Nα,Nα-dimethyl-L-(+)-histidine]	75.3	
